Results from patent US20210238139A1, “MODULATORS OF TRYPTOPHAN CATABOLISM” (E-Therapeutics PLC, priority 2018, published 2021).

Assays:
SK-OV-3 cells = experiment: Effect of compounds on tryptophan catabolism in SK-OV-3 cell line (inhibition of kynurenine production, LC-MS/MS); format: cell-based; conditions: for IC50: Homo sapiens, SK-OV-3, 24 h, SK-OV-3 cell line, 24 h incubation, kynurenine in supernatant by LC-MS/MS, read-out: IC50 Ranges (ic50 values for inhibition of Kynurenine production)
Summary of the method: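 Cells seeded overnight in McCoy's 5A/10% FBS, then switched to DMEM F-12 with 6 mg/mL L-tryptophan; compounds added at 8 3-fold dilutions from 30 μM, in duplicate, 24 h at 37 °C. Supernatant kynurenine measured by LC-MS/MS; ATP-based viability run in parallel; IC50 from % inhibition of Kyn production.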

IDO1 enzyme = target: T1, IDO1 enzyme (Homo sapiens, UniProt P14902); experiment: IDO1 enzyme inhibition assay (hIDO assay kit, NFK-green); conditions: IDO1 enzyme 25 nM, tryptophan 100 μM, top concentration 30 μM; read-out: IDO1 Biochemical assay IC50
T1 construct: purchased Netherlands Translational Research Center B.V. NTRC-hIDO-1K
T1 sequence (P14902 whole entry): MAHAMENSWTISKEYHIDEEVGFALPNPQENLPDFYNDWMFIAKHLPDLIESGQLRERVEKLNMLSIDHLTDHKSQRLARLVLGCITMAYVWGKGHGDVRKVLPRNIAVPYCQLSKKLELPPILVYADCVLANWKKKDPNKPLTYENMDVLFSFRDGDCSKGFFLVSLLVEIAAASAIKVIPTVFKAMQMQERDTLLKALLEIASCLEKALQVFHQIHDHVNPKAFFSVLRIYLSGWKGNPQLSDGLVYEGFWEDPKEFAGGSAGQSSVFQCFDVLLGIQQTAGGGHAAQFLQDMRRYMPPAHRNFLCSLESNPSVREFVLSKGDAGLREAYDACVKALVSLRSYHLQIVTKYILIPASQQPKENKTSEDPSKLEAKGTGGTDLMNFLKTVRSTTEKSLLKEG
Procedure: The effect of compounds on IDO1 enzymatic activity was assessed by use of a hIDO assay kit (Netherlands Translational Research Center B.V., Cat #NTRC-hIDO-1K). IDO1 enzyme and tryptophan substrate are diluted in assay buffer. Compounds are tested at 8 consecutive 3-fold dilutions starting from 30 μM. 267 nL of compound is added per well of a 384-well plate followed by addition of 10 μL of assay buffer. IDO1 enzyme is added at a final concentration of 25 nM and pre-incubated for 30 min at room temperature in the dark. Tryptophan substrate solution is then added at final concentration of 100 μM to all wells and the plate incubated for 60 min at RT in the dark. Finally NFK-green reagent is added at ⅕ of total reaction volume and incubated for 4 h at RT in the dark. After incubation fluorescence is measured at Ex405 nm-Em535 nm using EnVision plate reader.
(§1) IC50 values are determined using GraphPad Prism software 5.04 for Windows by plotting percent of inhibition against log 10 concentrations of compounds using a four-parametric sigmoidal curve with a variable slope.

TDO2 enzyme = target: T2, TDO2 enzyme (Homo sapiens, UniProt P48775); experiment: TDO2 enzyme inhibition assay (hTDO2 assay kit, NFK-green); conditions: TDO2 enzyme 50 nM, tryptophan 200 μM, top concentration 30 μM; read-out: TDO2 Biochemical assay IC50
T2 construct: purchased Netherlands Translational Research Center B.V. NTRC-hTDO-1K
T2 sequence (P48775 whole entry): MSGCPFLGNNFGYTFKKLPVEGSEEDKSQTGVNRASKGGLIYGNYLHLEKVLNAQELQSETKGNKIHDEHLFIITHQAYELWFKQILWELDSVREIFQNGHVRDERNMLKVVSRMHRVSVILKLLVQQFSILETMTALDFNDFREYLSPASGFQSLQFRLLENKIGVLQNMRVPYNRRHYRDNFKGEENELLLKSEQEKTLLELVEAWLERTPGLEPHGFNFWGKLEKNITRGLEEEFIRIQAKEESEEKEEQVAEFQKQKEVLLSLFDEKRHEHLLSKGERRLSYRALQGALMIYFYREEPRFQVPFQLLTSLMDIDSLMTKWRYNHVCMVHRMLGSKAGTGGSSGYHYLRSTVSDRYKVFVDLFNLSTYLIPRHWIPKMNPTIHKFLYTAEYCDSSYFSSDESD
Procedure: The effect of compounds on TDO2 enzymatic activity was assess by use of an hTDO2 assay kit (Netherlands Translational Research Center B.V., Cat #NTRC-hTDO-1K). TDO2 enzyme and tryptophan substrate are diluted in assay buffer. Compounds are tested at 8 consecutive 3-fold dilutions starting from 30 μM. 267 nL of compound is added per well of a 384-well plate followed by addition of 10 μL of assay buffer. TDO2 enzyme is added at a final concentration of 50 nM and pre-incubated for 60 min at room temperature in the dark. Tryptophan substrate solution is then added at final concentration of 200 μM to all wells and the plate incubated for 15 min at RT in the dark. Finally NFK-green reagent is added at ⅕ of total reaction volume and incubated for 4 h at RT in the dark. After incubation fluorescence is measured at Ex405 nm-Em535 nm using EnVision plate reader.
as §1

[1] = system: monocyte-derived dendritic cells; experiment: Effect of compounds on tryptophan catabolism in monocyte-derived dendritic cells (kynurenine production); format: cell-based; conditions: Homo sapiens, Dendritic cell; dendritic cells triggered with LPS and IFNγ, 24 h with compound
Procedure: (§2) Peripheral blood mononuclear cells are isolated from buffy coats from healthy volunteers by Lymphoprep density gradient centrifugation, followed by lysis of residual erythrocytes with isotonic buffer solution of ammonium chloride. CD14+ cells are isolated by positive selection using MACS® technology and CD14 MicroBeads (Miltenyi Biotec) according to manufacturer's instructions. The isolated monocytes are differentiated into dendritic cells by incubation for 5 days in RPMI-1640 medium supplemented with 10% fetal bovine serum (FBS), 50 ng/mL GM-CSF and 35 ng/mL IL-4. After 5 days the DCs are seeded in 96-well plates in DMEM supplemented with 10% charcoal stripped FBS, GM-CSF and IL-4. The following day cells are triggered with LPS and IFNγ. After 24 h of incubation medium is replaced with DMEM F-12 medium supplemented with 6 mg/mL L-tryptophan and 10% charcoal stripped FBS. Compounds are added to the cells and incubated for 24 h at 37° C., 5% CO2, 95% humidity. Compounds are tested at 7 consecutive 4-fold dilutions starting from 30 μM in duplicate.
(§3) At the end of incubation concentration of kynurenine in cell supernatants is determined by LC-MS/MS. In parallel, cell viability is assessed by measurement of ATP by use of CellTiter Glo assay (Promega) according to manufacturer's protocol.
Inhibition of Kyn production is calculated using the following formula:
(1−(Kyn conc. cmpd.−Kyn conc. medium)/(Kyn conc. medium with cells−Kyn conc. medium))·100
IC50 values are determined using GraphPad Prism software 5.04 for Windows, by plotting percent of inhibition against log 10 concentrations of compounds using a four-parametric sigmoidal curve with a variable slope.

[2] = system: monocyte-derived dendritic cells; experiment: Cell viability / cytotoxicity in monocyte-derived dendritic cells (ATP, CellTiter Glo); format: cell-based, human; conditions: 24 h, unit assumed
Procedure: as §2, §3
Cell viability results are analysed in Microsoft Excel and expressed as fold change over untreated control.

[3] = system: IDO1 protein in SK-OV-3 cells; experiment: Effect of compounds on IDO1 expression in SK-OV-3 cell line (Western analysis, normalised to GAPDH); format: cell-based; conditions: 24 hours exposure
Procedure: SK-OV-3 cells are seeded in 24-well plates in McCoy's 5A medium supplemented with 10% FBS at density of 250000 cells per well and incubated overnight at 37° C., 5% CO2, 95% humidity. The following day growth medium is replaced with DMEM F-12 medium containing 6 mg/mL L-tryptophan. Compounds are added to the wells and the plate is incubated for 24 h at 37° C., 5% CO2, 95% humidity. At the end of incubation medium is removed, cells are washed and then lysed in RIPA buffer. Protein concentrations in the samples are determined using BCA method (Thermo Scientific) and adjusted to 0.5 mg/mL. Western analysis is performed on the Wes system (Protein Simple) using IDO1 (Cell Signalling; Cat #12006S) and GAPDH (Abcam, Cat #ab9485) antibodies. Expression of IDO1 is normalised to GAPDH.

SMILES | IC50 (SK-OV-3 cells) [nM] | IC50 (IDO1 enzyme) [nM] | IC50 (TDO2 enzyme) [nM] | IC50 [1] [nM] | Cell viability at 30 uM (% of untreated control) [2] [%] | inhibition of kynurenine production by SKOV-3 (FIG. 1b) (SK-OV-3 cells; SKOV-3 cells, 24 hours exposure) | reduction in IDO1 protein in SKOV-3 cells (FIG. 1a) [3]
Cc1ccc(CN(C(=O)Nc2ccc(C#N)cc2)C2CCCC2)o1 [Compound 80, 3-(4-cyanophenyl)-1-cyclopentyl-1-[(5-methyl-2-furyl)methyl]urea] | < 100 | > 30000 | > 30000 | 26 | 112 |  | 
Cc1ccc(CN(C(=O)Nc2ccc(Cl)cc2)C2CCC2)o1 [Compound 83, 3-(4-chlorophenyl)-1-cyclobutyl-1-[(5-methyl-2-furyl)methyl]urea] | < 100 | > 30000 | > 30000 | 130 | 89 |  | 
O=C(Nc1ccc(Cl)cc1)N(Cc1cccc(C(F)(F)F)c1)C1CCC1 [Compound 90, 3-(4-chlorophenyl)-1-cyclobutyl-1-[[3-(trifluoromethyl)-phenyl]methyl]urea] | < 100 |  | > 30000 | 66 | 67 |  | 
C#Cc1ccc(NC(=O)N(Cc2ccc(C)o2)C2CCCC2)cc1 [Compound 102, 1-cyclopentyl-3-(4-ethynylphenyl)-1-[(5-methyl-2-furyl)methyl]urea] | < 100 |  | > 30000 |  |  | dose-dependent inhibition of kynurenine production | dose-dependent reduction in IDO1 protein
Cc1ccc(CN(C(=O)Nc2ccc(Cl)cc2)C2CCCC2)o1 [Compound 137, 3-(4-chlorophenyl)-1-cyclopentyl-1-[(5-methyl-2-furyl)methyl]urea] | < 100 | > 30000 | > 30000 | 40 | 88 |  | 
Cc1ncc(CN(C(=O)Nc2ccc(Cl)cc2)C2CCCC2)o1 [Compound 144, 3-(4-chlorophenyl)-1-cyclopentyl-1-[(2-methyloxazol-5-yl)methyl]urea] | 100 to 500 | > 30000 | > 30000 | 380 | 109 |  | 
N#Cc1cccc(CN(C(=O)Nc2ccc(Cl)cc2)C2CCCC2)c1 [Compound 147, 3-(4-chlorophenyl)-1-[(3-cyanophenyl)methyl]-1-cyclopentyl-urea] | < 100 |  | > 30000 | 70 | 122 |  | 
O=C(Nc1ccc(Cl)cc1)N(Cc1ccnc(C(F)(F)F)c1)C1CCCC1 [Compound 148, 3-(4-chlorophenyl)-1-cyclopentyl-1-[[2-(trifluoromethyl)-4-pyridyl]methyl]urea] | < 100 |  |  | 150 | 103 |  | 
